Reference: patent US20260185169A1, “MOLECULAR SIGNATURES TO PREDICT LONG-TERM LIVER FIBROSIS PROGRESSION” (THE BOARD OF REGENTS OF THE UNIVERSITY OF TEXAS SYSTEM, priority 2022, published 2026)

Tested on: clinical PCLS tissues
Assay: FPS/PLS response (CES, nCounter) in organotypic ex vivo culture of clinical PCLS tissues
Format: cell-based, human
From the text: Evaluation of galunisertib, erlotinib, AM095, bortezomib, pioglitazone, metformin, epigallocatechin gallate (EGCG), I-BET 151, JQ1, captopril, nizatidine (Selleck Chemicals); MG-132 (Sigma-Aldrich); cenicriviroc (AbbVie) (Table 2) were done in organotypic ex vivo culture of precision-cut liver slice (PCLS) tissues in the FPS validation set 2 as previously described. Patient-derived liver cell spheroids were generated from a cirrhosis patient and high-risk FPS was induced by free fatty acids, and treated with EGCG, bortezomib, cenicriviroc, and/or bezafibrate for 48 h. Mycoplasma-free human hepatic myofibroblast cell lines, LX-2 and TWNT-4, were cultured with MG-132 (20 μM) or DMSO control for 12 and 24 h in triplicates.
Total RNA was isolated from fixed tissue sections by using High Pure RNA Paraffin kit (Roche), and assessed for quality by qRT-PCR of RPL13A. Total RNA from the PCLS tissues was isolated using RNeasy kit (Qiagen). RNA samples (100-200 ng) were subjected to the PLS/FPS assay implemented in the nCounter platform (NanoString), and transcriptome profiling of the CENTAUR trial samples was performed by RNA-Seq (TrueSeq RNA Access, Illumina). Expression of BCL2, COL1A1, and ACTA2 genes was measured by qRT-PCR (Table 3). Serum protein profiling was performed by using xMAP assay (Luminex).
Total RNA was isolated from three to five 10-μm-thick formalin-fixed paraffin-embedded (FFPE) tissue sections from the PLS/FPS derivation/validation cohorts by using High Pure RNA Paraffin kit (Roche), and lack of severe RNA fragmentation was confirmed by qRT-PCR of a housekeeping gene RPL13A as previously described.^1 From freshly harvested myofibroblast cell lines, LX-2 and TWNT-4, and clinical precision-cut-liver slice (PCLS) tissues stored in RNAlater (ThermoFisher) at −80?C, total RNA was isolated using RNeasy kit (Qiagen), and the RNA integrity number (RIN)>8 by Bioanalyzer (Agilent) was regarded as sufficient quality for expression analysis. Total RNA samples (100 to 500 ng) were subjected to the gene signature assays implemented in the digital transcript counting technology (NanoString) according to manufacturer's instruction. Poor quality profiles were detected based on maximum signal intensity from positive control probes <3,000U. Raw transcript count data were log-transformed (base 2) and scaled by geometric mean of control probe data by using NanoString normalizer module implemented in GenePattern data analysis suite (www.broadinstitute.org/genepattern). Genome-wide transcriptome profiling of the CENTAUR trial samples was performed using 100 to 200 ng total RNA by RNA-Seq using exome-enriched library preparation according to the manufacturer's protocol (TrueSeq, Illumina). Raw sequencing reads were mapped onto the reference human genome (hg19) by using the STAR aligner (ver. 2.6.1b) followed by the read counting on genes via featureCounts in the Subread package (ver. 1.6.1). The raw read counts were further normalized by using the Relative Log Expression (RLE) implemented in the DESeq2 package (ver. 1.22.2). Expression of COL1A1, and ACTA2, and BCL2 genes was measured by qRT-PCR (BioRad) using ddCt method with RPL13A as housekeeping gene, as previously described (refer Table 3 for the primer sequences). Gene expression profiles of the PLS/FPS-inducible cell culture model (cell-culture-derived PLS [cPLS] system) treated with erlotinib, pioglitazone, captopril, and resveratrol were obtained from our previous study (GSE81801).

## CCCCOCCOc1ccc(-c2ccc3c(c2)/C=C(/C(=O)Nc2ccc([S@@+]([O-])Cc4cncn4CCC)cc2)CCCN3CC(C)C)cc1 [Cenicriviroc]
Count of patients with CES-based FPS response, PCLS cultured 24 h with agent vs vehicle
  FPS response rate (number of responding patients): 4
Count of patients with PLS response, ex vivo PCLS culture
  PLS response rate (number of responding patients): 7
